From article PMC7031696 (Cell chemical biology, 2019)
Like-named read-outs stand apart in the source and are kept apart here.

How the values were obtained:
[1] = tested on: 3D7-MR4 trophozoite parasite-infected RBCs; test: Metabolomic profiling (hydrophilic metabolite changes, UHPLC-MS); assay type: cell-based, Plasmodium falciparum
[2] = tested on: 3D7-MR4 trophozoite parasite-infected RBCs; conditions: 10 × IC50^72h; ref Allman et al., 2016; cited from earlier work
[3] = tested on: asynchronous 3D7-A10 parasite cultures; test: Standard 72-h exposure asexual blood stage susceptibility assay (IC50^72h); assay type: cell-based, Plasmodium falciparum; conditions: Plasmodium falciparum, 3D7, 72 h, read-out: Overall (72hr assay) Mean IC50 (IC50^72h)
[4] = 1.5 h, 500 μM, pH 7.4
[5] = tested on: Plasmodium falciparum 3D7-A10 parasites; test: Stage specificity assay (8-h exposure of synchronized stages, IC50^8h); assay type: cell-based; conditions: for IC50: Plasmodium falciparum

Compound: CCCN(CCC)CC(O)COc1ccccc1C(=O)Nc1ccccc1 (centres unmarked) [MMV006455]
- Log2(fold changes) 3-phosphoglycerate ([1]; metabolite 3-phosphoglycerate, log2 fold change): 0.4787
- Log2(fold changes) 4-Pyridoxic acid ([1]; metabolite 4-Pyridoxic acid, log2 fold change): -0.2918
- Log2(fold changes) 4-aminobutyrate ([1]; metabolite 4-aminobutyrate, log2 fold change): 0.4559
- Log2(fold changes) 4-phosphopantetheine ([1]; metabolite 4-phosphopantetheine, log2 fold change): 0.0000
- Log2(fold changes) 4-phosphopantothenate ([1]; metabolite 4-phosphopantothenate, log2 fold change): 0.3730
- Log2(fold changes) 5-aminopentanoic acid ([1]; metabolite 5-aminopentanoic acid, log2 fold change): 0.0000
- Log2(fold changes) 5-methyl-THF ([1]; metabolite 5-methyl-THF, log2 fold change): 0.0000
- Log2(fold changes) 5-phosphoribosyl-1-pyrophosphate ([1]; metabolite 5-phosphoribosyl-1-pyrophosphate, log2 fold change): -0.9177
- Log2(fold changes) 6-phospho-D-gluconate ([1]; metabolite 6-phospho-D-gluconate, log2 fold change): 0.4580
- Log2(fold change) HVDD ([1]; metabolite HVDD): 0.0000
- Log2(fold change) Hydroxyisocaproic acid ([1]; metabolite Hydroxyisocaproic acid): 0.0000
- Log2(fold change) IDP ([1]; metabolite IDP): 0.0000
- Log2(fold change) IMP ([1]; metabolite IMP): 0.8206
- Log2(fold change) Inositol ([1]; metabolite Inositol): 0.0000
- Log2(fold change) Isopentyl-PP ([1]; metabolite Isopentyl-PP): 0.0000
- Log2(fold change) L-arginino-succinate ([1]; metabolite L-arginino-succinate): 0.0000
- Log2(fold change) LD ([1]; metabolite LD): -0.4790
- Log2(fold change) Myristoyl/tetradecanoyl-CoA ([1]; metabolite Myristoyl/tetradecanoyl-CoA): 0.0000
- Log2(fold change) N-Acetyl-L-alanine ([1]; metabolite N-Acetyl-L-alanine): -0.7708
- Log2(fold change) N-acetyl-L-ornithine ([1]; metabolite N-acetyl-L-ornithine): -1.4120
- Log2(fold change) N-acetyl-glucosamine-1/6-phosphate ([1]; metabolite N-acetyl-glucosamine-1/6-phosphate): 1.1792
- Log2(fold change) N-acetyl-glutamate ([1]; metabolite N-acetyl-glutamate): 0.9055
- Log2(fold change) N-acetyl-glutamine ([1]; metabolite N-acetyl-glutamine): -0.4062
- Log2(fold change) N-carbamoyl-L-aspartate ([1]; metabolite N-carbamoyl-L-aspartate): -1.3580
- Log2(fold change) NAD+ ([1]; metabolite NAD+): 0.6496
- Log2(fold change) NADH ([1]; metabolite NADH): -0.2919
- Log2(fold change) NADP+ ([1]; metabolite NADP+): 1.1032
- Log2(fold change) NADPH ([1]; metabolite NADPH): 1.2448
- Log2(fold change) O-acetyl-L-serine ([1]; metabolite O-acetyl-L-serine): 0.0000
- Log2(fold change) Octoluse 8/1P ([1]; metabolite Octoluse 8/1P): -0.0556
- Log2(fold change) Octoluse Bisphosphate ([1]; metabolite Octoluse Bisphosphate): 0.1196
- Log2(fold change) PD ([1]; metabolite PD): -1.7411
- Log2(fold change) PE ([1]; metabolite PE): 2.1593
- Log2(fold change) PEE ([1]; metabolite PEE): -6.2592
- Log2(fold change) PEEK ([1]; metabolite PEEK): -3.5426
- Log2(fold change) PVNF ([1]; metabolite PVNF): -1.5028
- Log2(fold change) Pyroglutamic acid ([1]; metabolite Pyroglutamic acid): -0.5503
- Log2(fold change) Pyrophosphate ([1]; metabolite Pyrophosphate): -0.6263
- Log2(fold change) Ribose-5-phosphate ([1]; metabolite Ribose-5-phosphate): 0.0000
- Log2(fold change) S-adenosyl-L-homocysteine ([1]; metabolite S-adenosyl-L-homocysteine): 0.2802
- Log2(fold change) S-adenosyl-L-methioninamine ([1]; metabolite S-adenosyl-L-methioninamine): 0.0000
- Log2(fold change) S-adenosyl-L-methionine ([1]; metabolite S-adenosyl-L-methionine): 0.0000
- Log2(fold change) S-methyl-5'-thioadenosine ([1]; metabolite S-methyl-5'-thioadenosine): 1.5238
- Log2(fold change) SD ([1]; metabolite SD): -2.2607
- Log2(fold change) SDL ([1]; metabolite SDL): 0.0000
- Log2(fold change) SID ([1]; metabolite SID): 0.0000
- Log2(fold change) Sedoheptulose bisphosphate ([1]; metabolite Sedoheptulose bisphosphate): 0.2316
- Log2(fold change) Thiamine pyrophosphate ([1]; metabolite Thiamine pyrophosphate): 0.0000
- Log2(fold changes) UDP-D-glucose ([1]; metabolite UDP-D-glucose, log2 fold change): 0.1600
- Log2(fold changes) UDP-D-glucuronate ([1]; metabolite UDP-D-glucuronate, log2 fold change): -0.0808
- Log2(fold changes) UDP-N-acetyl-glucosamine ([1]; metabolite UDP-N-acetyl-glucosamine, log2 fold change): 0.3510
- Log2(fold changes) UDP ([1]; metabolite UDP, log2 fold change): 0.8505
- Log2(fold changes) UMP ([1]; metabolite UMP, log2 fold change): -0.5223
- Log2(fold changes) UTP ([1]; metabolite UTP, log2 fold change): -1.8892
- Log2(fold change) hydroxyphenylpyruvate ([1]; metabolite hydroxyphenylpyruvate): 0.0000
- Log2(fold change) hydroxyproline/Aminolevulinate ([1]; metabolite hydroxyproline/Aminolevulinate): 0.0000
- Log2(fold change) hypoxanthine ([1]; metabolite hypoxanthine): 0.1926
- Log2(fold change) indole ([1]; metabolite indole): -0.2645
- Log2(fold change) inosine ([1]; metabolite inosine): 0.3717
- Log2(fold change) isoleucine ([1]; metabolite isoleucine): 0.0000
- Log2(fold change) lactate ([1]; metabolite lactate): 1.3382
- Log2(fold change) leucine ([1]; metabolite leucine): 0.0000
- Log2(fold change) lysine ([1]; metabolite lysine): 0.0000
- Log2(fold change) malate ([1]; metabolite malate): 1.2603
- Log2(fold change) maleic acid ([1]; metabolite maleic acid): 0.0000
- Log2(fold change) methionine ([1]; metabolite methionine): 0.0000
- Log2(fold change) myo-inositol ([1]; metabolite myo-inositol): 3.3468
- Log2(fold change) nicotinamide mononucleotide ([1]; metabolite nicotinamide mononucleotide): 0.0000
- Log2(fold change) nicotinate ([1]; metabolite nicotinate): 0.0981
- Log2(fold change) ornithine ([1]; metabolite ornithine): -0.2237
- Log2(fold change) orotate ([1]; metabolite orotate): -1.3257
- Log2(fold change) orotidine-5'-phosphate ([1]; metabolite orotidine-5'-phosphate): 0.0000
- Log2(fold change) oxaloacetate ([1]; metabolite oxaloacetate): 0.0000
- Log2(fold change) p-aminobenzoate ([1]; metabolite p-aminobenzoate): 0.0000
- Log2(fold change) p-hydroxybenzoate ([1]; metabolite p-hydroxybenzoate): 0.4381
- Log2(fold change) pantothenate ([1]; metabolite pantothenate): 0.0000
- Log2(fold change) phenylalanine ([1]; metabolite phenylalanine): 0.0000
- Log2(fold change) phenylpyruvate ([1]; metabolite phenylpyruvate): 0.1142
- Log2(fold change) phosphoenolpyruvate ([1]; metabolite phosphoenolpyruvate): 0.0121
- Log2(fold change) prephenate ([1]; metabolite prephenate): 0.0000
- Log2(fold change) proline ([1]; metabolite proline): 0.0000
- Log2(fold change) pyridoxine ([1]; metabolite pyridoxine): 0.0000
- Log2(fold change) pyruvate ([1]; metabolite pyruvate): 0.4670
- Log2(fold change) riboflavin ([1]; metabolite riboflavin): 0.0000
- Log2(fold change) ribose ([1]; metabolite ribose): 0.0000
- Log2(fold change) ribose-phosphate ([1]; metabolite ribose-phosphate): -0.0481
- Log2(fold change) ribulose-5-phosphate ([1]; metabolite ribulose-5-phosphate): 0.0000
- Log2(fold change) serine ([1]; metabolite serine): 0.0000
- Log2(fold change) sn-glycerol-3-phosphate ([1]; metabolite sn-glycerol-3-phosphate): -0.3619
- Log2(fold change) succinate/Methylmalonic acid ([1]; metabolite succinate/Methylmalonic acid): -0.7549
- Log2(fold change) succinyl-CoA/methylmalonyl-CoA ([1]; metabolite succinyl-CoA/methylmalonyl-CoA): 0.0000
- Log2(fold change) taurine ([1]; metabolite taurine): 0.0000
- Log2(fold change) thiamine ([1]; metabolite thiamine): 0.0000
- Log2(fold change) threonine/homoserine ([1]; metabolite threonine/homoserine): 0.0000
- Log2(fold change) thymidine ([1]; metabolite thymidine): -0.5446
- Log2(fold changes) thymine ([1]; metabolite thymine, log2 fold change): 3.4235
- Log2(fold changes) trehalose-6-Phosphate ([1]; metabolite trehalose-6-Phosphate, log2 fold change): 0.0000
- Log2(fold changes) tryptophan ([1]; metabolite tryptophan, log2 fold change): 0.0000
- Log2(fold changes) tyrosine ([1]; metabolite tyrosine, log2 fold change): 0.0000
- Log2(fold changes) uridine ([1]; metabolite uridine, log2 fold change): 0.2304
- levels of cAMP [2]: decreased
- levels of the deoxyribonucleotides dAMP and dTMP [2]: increased
- peptide levels (hemoglobin catabolism signature) [2]: decreased peptide levels
- solubility at 1.5 h (physchem; pH 7.4): > 100 µM
- solubility at 1.5 h (physchem; pH 7.4, aqueous buffer, kinetic from dmso stock): ≥ 500 µM
- IC50 [3]: 439 nM
- Ratio fil./std. (absorbance filtrate/standard) [4]: 1.00
- Ratio lowest IC50 8hr/IC50 72hr ([5]; 3D7-A10): 1.0
- killing in stage specificity assay ([5]; 8-h exposures, survival curves): incomplete killing at all asexual blood stages
- IC50 ([5]; 3D7, read-out: Early rings IC50 (IC50^8h), 8-h exposure 0–8 hr, bound given in μM): > 12.5 µM
- IC50 ([5]; 3D7, read-out: Early trophozoites Mean IC50 (IC50^8h), 8-h exposure 16–24 hr, 3D7-A10, survival at 60 h): 0.441 µM
- IC50 ([5]; 3D7, read-out: Late rings IC50 (IC50^8h), 8-h exposure 8–16 hr, bound given in μM): > 12.5 µM
- IC50 ([5]; 3D7, read-out: Late trophozoites Mean IC50 (IC50^8h), 8-h exposure 24–32 hr, 3D7-A10, survival at 60 h): 0.45 µM
- IC50 ([5]; 3D7, read-out: Schizonts Mean IC50 (IC50^8h), 8-h exposure 32–40 hr, 3D7-A10, survival at 60 h): 0.933 µM
- Stage of peak activity (Figure 6) ([5]; period when the parasite was most susceptible (lowest IC50^8h)): trophozoites
- Peak Activity (Table S1) ([5]; stage(s) with the lowest IC50^8h): Trophs
